Data reported in patent publication US20220204491A1, “FXR (NR1H4) MODULATING COMPOUNDS” (Gilead Sciences, Inc., priority 2019, published 2022).

Biological target: T1, human UGT1A1 (Homo sapiens, UniProt P22309)
T1 construct: purchased
T1 sequence (P22309 26-533): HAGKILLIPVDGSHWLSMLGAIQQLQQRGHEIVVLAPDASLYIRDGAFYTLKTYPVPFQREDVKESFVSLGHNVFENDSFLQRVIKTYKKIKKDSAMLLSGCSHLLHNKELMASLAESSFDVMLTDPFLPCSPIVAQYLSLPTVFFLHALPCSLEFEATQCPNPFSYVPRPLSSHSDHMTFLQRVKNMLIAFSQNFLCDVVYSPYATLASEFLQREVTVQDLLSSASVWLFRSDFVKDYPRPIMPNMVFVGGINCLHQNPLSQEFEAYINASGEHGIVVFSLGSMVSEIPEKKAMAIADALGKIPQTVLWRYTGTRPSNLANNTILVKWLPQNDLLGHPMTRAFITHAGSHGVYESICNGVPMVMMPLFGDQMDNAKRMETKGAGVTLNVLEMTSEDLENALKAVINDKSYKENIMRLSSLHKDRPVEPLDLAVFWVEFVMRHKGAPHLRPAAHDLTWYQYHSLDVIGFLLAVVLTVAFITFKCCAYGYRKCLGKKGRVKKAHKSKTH
Test: UGT1A1 inhibition (estradiol 3-glucuronide formation, Supersomes)
Format: in vitro ADME
Procedure: The compound of Formula (I) (Example 1) was tested for inhibition of UGT1A1 and was compared against Comparative Example 1. To perform the assay, sample compound was incubated with human UGT1A1 expressed Supersomes™ (0.25 mg/mL), alamethicin (25 μg/mg) and UDPGA (5 mM) in the presence of probe substrate estradiol (10 μM) for 30 mins at 37° C. A selective UGT1A1 inhibitor, atazanavir, was screened alongside the test compounds as a positive control. The reactions were terminated by quenching an aliquot into two volumes of methanol. The samples were centrifuged at 2500 rpm for 30 mins at 4° C., and aliquots of the supernatant were diluted with formic acid in deionised water (final formic acid concentration 0.1%) and internal standard. Cyprotex generic LC-MS/MS conditions were used to monitor estradiol 3-glucuronide formation. A decrease in the formation of the metabolite compared to vehicle control is used to calculate an IC50 value.

O=C(O)c1ccc(N2CC(O)(c3ccc(OCc4c(-c5c(Cl)cc(F)cc5Cl)noc4C4CC4)cc3Cl)C2)nc1 [Example 1, 6-(3-(2-chloro-4-((5-cyclopropyl-3-(2,6-dichloro-4-fluorophenyl)isoxazol-4-yl)methoxy)phenyl)-3-hydroxyazetidin-1-yl)nicotinic acid]
UGT1A1 inhibition, comparison of the compounds (Example 1 compared against Comparative Example 1): most potent UGT1A1 inhibition of the compounds compared | IC50 (probe substrate estradiol 10 μM, 30 mins at 37° C.): 440 nM
